What all share (experiment): NCI tumour cell line growth inhibition, 48 h
Assay [1] deals with EKVX NSCLC.
Assay [2] relates to M14 melanoma.
Assay [3] concerns SK-MEL-28 melanoma.
Assay [4] relates to IGROV1 ovarian.
Assay [5] has as its system UACC-62 melanoma.
For assay [6], the system named is SF-539 CNS.
The test system of assay [7] is CCRF-CEM leukemia.
Assay [8] has as its system OVCAR-5 ovarian.
For assay [9], the system named is MOLT-4 leukemia.
Assay [10] concerns PC-3 prostate.

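Following 48 hours of exposure in 96-well plates, responses at five concentrations were used to interpolate endpoints linearly. GI50 is the concentration that inhibits growth by half. Definition used: TGI = concentration required for complete inhibition of growth.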

As for `O=C(O)c1cn(C2CC2)c2cc(N3CCN(Cc4ccc5ccccc5c4O)CC3)c(F)cc2c1=O`, the GI50 in assay [1] was greater than 100 µM; in assay [2], 3.18 µM; in assay [3] it was 3.71 µM; in [4], 4.91 µM; in assay [5], 5.06 µM. The TGI in [1], in [2], in assay [3], in [4] and in [5] was greater than 100 µM throughout.
For `NC(=O)c1cc([N+](=O)[O-])cc([N+](=O)[O-])c1`, the TGI in assay [6], in assay [1], in assay [2], in assay [7], in assay [3] and in assay [4] was greater than 100 µM each time. Further, the TGI in [8], in assay [9] and in assay [5] was greater than 100 µM each time.
Take `CCCCC(C(=O)CCC(=O)Nc1ccc(Cl)cc1)C(=O)C(C)C` (configuration not stated): the TGI in assay [6], in assay [1], in [2], in assay [7], in [3] and in assay [4] was greater than 100 µM in each case. For the same compound, the TGI in [8], in assay [9] and in assay [5] was greater than 100 µM throughout.
`ClCCCCOC1CCCCO1` (configuration not stated): the TGI in assay [6], in assay [1], in assay [2], in assay [3], in [4] and in [8] was greater than 100 µM each time. Moreover, the TGI in assay [9] and in [5] was greater than 100 µM throughout.
Turning to `Cc1ccc(S(=O)(=O)CC2(Br)CCc3ccccc3C2=O)cc1` (configuration not stated), the TGI in assay [6] was greater than 100 µM; in assay [1], greater than 100 µM; in [2] it was greater than 100 µM; in assay [3], 38.5 µM; in assay [4], 41 µM; in assay [8] it was greater than 100 µM. The TGI in [10] is greater than 100 µM; in assay [9] it was greater than 100 µM; in [5] it was 67.9 µM.
Take `CC(C)COC(c1ccc2c(c1)OCO2)C(C)Br` (configuration not stated): the TGI in assay [6] was 71.3 µM; in assay [1], 76 µM; in [2], 50.9 µM; in [3] it was greater than 100 µM; in assay [4], greater than 100 µM; in [8], 49.3 µM. In addition, the TGI in assay [10] and in assay [5] was greater than 100 µM throughout.
`COc1c(C)c(O)c2c(c1C)OC(c1ccccc1)CC2=O` (configuration not stated): the TGI in assay [6], in assay [1], in assay [2], in [7], in assay [3] and in assay [4] was greater than 100 µM in each case. For the same compound, the TGI in assay [8], in assay [9] and in assay [5] was greater than 100 µM each time.
As for `Nc1nc2ncn(CC(O)COC(=O)c3ccccc3)c2c(=O)[nH]1` (configuration not stated), the TGI in [6], in assay [1], in assay [2], in [7], in assay [3] and in [4] was greater than 100 µM each time. The TGI in assay [8] and in assay [5] was greater than 100 µM throughout.
Consider `COC(=O)/C(=N/NC(C)(C)C)C(C(=O)OC)C(=O)C(=O)Nc1nc2ccc([N+](=O)[O-])cc2s1` (configuration not stated), for which the TGI in [6], in assay [1], in [2], in assay [7], in assay [3] and in assay [4] was greater than 100 µM in each case. Besides, the TGI in [8], in assay [9] and in assay [5] was greater than 100 µM each time.
With `O=C(O)COc1ccc(C(=O)/C(SS/C(C(=O)c2ccc(OCC(=O)O)c(Cl)c2Cl)=C2\C=C(c3ccccc3Cl)SS2)=C2/C=C(c3ccccc3Cl)SS2)c(Cl)c1Cl`, the TGI in assay [6] was 17.2 µM; in [1], greater than 89.3 µM; in assay [2] it was greater than 68 µM; in assay [7], 33.5 µM; in [3], greater than 100 µM; in [4] it was 63.2 µM. Besides, the TGI in assay [8] is greater than 100 µM; in assay [9], 53.6 µM; in [5] it was 69.5 µM.
For `Cc1cn2c(/C=C3/C(=O)Nc4ccc(Cl)cc43)c(C)nc2s1`, the GI50 in [6] was 0.124 µM; in assay [1], 12.5 µM; in assay [2] it was less than 0.028 µM; in [3] it was 17 µM; in [4] it was 2.5 µM; in assay [8], 1.91 µM. Moreover, the GI50 is 0.0447 µM in assay [10], 77.6 nM in [9] and 0.0411 µM in assay [5]. The TGI in assay [6] was 0.692 µM; in assay [1], greater than 100 µM; in assay [2], greater than 45.7 µM; in assay [3], greater than 54.7 µM; in assay [4], 99.4 µM; in assay [8], greater than 43.4 µM. The TGI in [9] is greater than 100 µM; in [5] it was 54.7 µM.
As to `COC(=O)C1(O)c2ccccc2N=C2C1CCN2C` (configuration not stated), the TGI in assay [6], in [1], in assay [2], in [7], in assay [3] and in assay [4] was greater than 100 µM each time. Further, the TGI in assay [8], in [9] and in [5] was greater than 100 µM each time.
For `O=C1N=C(Nc2nc(-c3csc(NC4=NC(=O)/C(=C\c5ccc(Cl)cc5)S4)n3)cs2)S/C1=C/c1ccc(Cl)cc1`, the GI50 was 15.4 µM in assay [6]; 12.3 µM in assay [1]; 3.03 µM in [2]; 42.8 µM in [3]; 19.8 µM in [4]; 25.8 µM in assay [8]. The GI50 in [10] is 8.78 µM; in assay [9], 1690 nM; in assay [5], 6.03 µM. Also, the TGI in assay [6] was 46.2 µM; in [1], greater than 50 µM; in assay [2], 11.5 µM; in assay [3], greater than 50 µM; in [4], greater than 50 µM; in assay [8] it was greater than 50 µM. Also, the TGI in [10] is 49 µM; in assay [9], greater than 50 µM; in [5], 16.4 µM.
